Where a name gives a salt, the structure may show the parent alone. Read-outs that look alike come from different tables or passages of the source.
Columns and labels:
human LTA4 hydrolase = molecular target: T1, human LTA4 hydrolase (Homo sapiens, UniProt P09960); test: In vitro assay testing inhibitory activity against purified recombinant human LTA4 hydrolase; format: biochemical
T1 construct: A human LTA4 hydrolase full-length cDNA clone (NM_000895) was purchased; His tag (own knowledge: pDEST17 adds an N-terminal 6xHis); made in house; host or cells: Escherichia coli BL21-AI
T1 sequence (P09960 1-611): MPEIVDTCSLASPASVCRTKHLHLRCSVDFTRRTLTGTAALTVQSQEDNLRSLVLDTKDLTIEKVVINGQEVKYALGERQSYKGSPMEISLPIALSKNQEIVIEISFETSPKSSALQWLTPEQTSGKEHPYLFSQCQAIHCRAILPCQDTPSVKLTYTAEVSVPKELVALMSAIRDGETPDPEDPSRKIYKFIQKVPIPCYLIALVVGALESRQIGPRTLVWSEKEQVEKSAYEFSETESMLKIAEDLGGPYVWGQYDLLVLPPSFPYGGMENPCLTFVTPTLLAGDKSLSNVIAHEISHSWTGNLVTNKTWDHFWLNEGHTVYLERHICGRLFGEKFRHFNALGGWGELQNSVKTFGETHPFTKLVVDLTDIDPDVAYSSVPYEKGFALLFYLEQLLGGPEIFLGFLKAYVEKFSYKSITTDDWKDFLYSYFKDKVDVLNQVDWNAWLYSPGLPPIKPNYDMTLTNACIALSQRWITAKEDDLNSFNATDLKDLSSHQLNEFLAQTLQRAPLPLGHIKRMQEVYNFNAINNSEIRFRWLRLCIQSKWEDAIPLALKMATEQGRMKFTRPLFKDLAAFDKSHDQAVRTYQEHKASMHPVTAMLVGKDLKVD
Source text: (1) In vitro Assay Testing Inhibitory Activity Against Purified Recombinant Human LTA4 Hydroase:
A human LTA4 hydrolase full-length cDNA clone (NM_000895) was purchased from OriGene Technologies (Rockville, Md.). The gene was amplified by polmerase chain reaction and transferred via pDONR201 into the bacterial expression vector pDEST17 by recombination (both plasmids from Invitrogen, Carlsbad, Calif.). The resulting construct was transformed into Escherichia coli BL21-AI (Invitrogen), and expression was induced by chemical induction with arabinose. The recombinant enzyme was purified by chromatography on a FPLC system (Amersham Biosciences, Uppsala, Sweden) using immobilized metal affinity chromatography (Ni-NTA Superflow, Qiagen, Hilden, Germany) and anion exchange chromatography (MonoQ HR 10/10, Amersham Biosciences).
(§1) The compounds of the invention were incubated in a series of dilutions with 200 nM of recombinant enzyme in assay buffer (100 mM Tris-HCl, 100 mM NaCl, 5 mg/ml fatty-acid free BSA, 10% DMSO, pH 8.0) for 10 min at room temperature to allow binding between LTA4 hydrolase and the inhibitors. LTA4 was prepared by alkaline hydrolysis of LTA4 methyl ester (Biomol, Plymouth Meeting, Pa., or Cayman Chemicals, Ann Arbor, Mich.). A solution of 10 μg of the ester was dried under a nitrogen stream and redissolved in 60 μl of a solution of 80% aceton and 20% 0.25 M NaOH.
After incubation for 40 min at room temperature the resulting approximately 500 μM tock of LTA4 was kept at −80° C. for no more than a few days prior to use.
Immediately before the assay, LTA4 was diluted to a concentration of 10 μM in assay buffer (without DMSO) and added to the reaction mixture to a final concentration of 2 μM to initiate the enzyme reaction. After incubation for 120 sec at room temperature, the reaction was stopped by ading 2 volumes of chilled quenching buffer, containing acetonitril with 1% acetic acid and 225 nM LTB4-d4 (Biomol). The samples were then kept at 4° C. over night to complete protein precipitation and centrifuged for 15 min at 1800 g. LTB4 formed was measured by LC-MS/MS using LTB4-d4 as an internal standard and an external LTB4 standard (Biomol) as reference. Briefly, the analyte was separated from LTB4 isomers formed by spontaneous hydrolysis of LTA4 using isocratic elution (modified protocol from Mueller et al. (1996), J. Biol. Chem. 271, 24345-24348) on a HPLC system (Waters, Milford, Mass.) and analyzed on a tandem quadrupole mass spectrometer (Waters). MRM transitions followed on 2 channels were 335.2>195.3 (LTB4) and 339.2>197.3 (LTB4-d4). Based on the amounts of LTB4 found at each inhibitor concentration, a dose-response curve was fitted to the data and an IC50 value was calculated.
as §1, with “NaOH. After incubation for 40 min at room temperature the resulting approximately 500 μM tock of LTA4 was kept at −80° C. for no more than a few days prior to use.” for “NaOH.”

[1] = test system: ionophore-induced LTB4 production; settings: oral administration; cited from earlier work
[2] = test system: ionophore-induced LTB4 production; settings: oral administration; cited from earlier work; remark: listed apart in the source
[3] = eight weeks of treatment, primate model; cited from earlier work
[4] = Table V, read-out: hLTA4H Enzyme IC50
[5] = Table II, read-out: IC50 (μM)(hLTA4H)
[6] = Table IV, read-out: hLTA4H Enyzme IC 50
[7] = Table I, read-out: IC50 (μM) (hLTA4H)
[8] = Table III, read-out: IC50 (μM) (hLTA4H)

With `O=C1c2ccccc2C(=O)N1c1ccc(OCCN2CCCCC2)cc1` the IC50 (human LTA4 hydrolase; [4]) was < 5 µM.
In the case of `O=C1c2ccccc2C(=O)N1c1ccc(OC[C@H]2CCCN2)cc1`, the IC50 (human LTA4 hydrolase; [4]) is reported as < 5 µM.
Work on `CN1CCC[C@@H]1COc1ccc(N2Cc3ccccc3C2)cc1` yielded an IC50 (human LTA4 hydrolase; [4]) of 5 to 20 µM.
Molecule `c1ccc2c(c1)cnn2-c1ccc(OC[C@H]2CCCN2)cc1` has an IC50 (human LTA4 hydrolase; [4]) of 5 to 20 µM.
For `CC1Cc2ccccc2N1c1ccc(OC[C@H]2CCCN2)cc1` (stereo partly shown), the IC50 (human LTA4 hydrolase; [4]) was > 20 µM.
In the case of `Cc1cn(-c2ccc(OC[C@H]3CCCN3)cc2)c2ccccc12`, the IC50 (human LTA4 hydrolase; [4]) is reported as > 20 µM.
In the case of `Clc1c2ccccc2nn1-c1ccc(OCCN2CCCCC2)cc1` [Example 1, 3-Chloro-2-[4-(2-piperidin-1-yl-ethoxy)-phenyl]-2H-idazole], the IC50 (human LTA4 hydrolase; [5]) is reported as < 5 µM and the IC50 (human LTA4 hydrolase; [6]) is reported as < 5 µM.
With `CN(CCOc1ccc(-n2nc3ccccc3c2Cl)cc1)CCC(=O)O` [Example 2, 3-({2-[4-(3-Chloro-indazol-2-yl)-phenoxy]-ethyl}-methyl-amino)-propionic acid hydrochloride] the IC50 (human LTA4 hydrolase; [7]) was < 5 µM and the IC50 (human LTA4 hydrolase; [6]) was < 5 µM.
For `CN(CCCC(=O)O)CCOc1ccc(-n2nc3ccccc3c2Cl)cc1` [Example 3, 4-({2-[4-(3-Chloro-indazol-2-yl)-phenoxy]-ethyl}-methyl-amino)butyric acid hydrchloride salt], the IC50 (human LTA4 hydrolase; [7]) was < 5 µM and the IC50 (human LTA4 hydrolase; [6]) was < 5 µM.
In the case of `CNCCCOc1ccc(-n2nc3ccccc3c2Cl)cc1` [Example 4, {3-[4-(3-Chloro-indazol-2-yl)-phenoxy]-propyl}-methyl-amine hydrochloride], the IC50 (human LTA4 hydrolase; [7]) is reported as < 5 µM and the IC50 (human LTA4 hydrolase; [6]) is reported as < 5 µM.
In the case of `CN(CCCOc1ccc(-n2nc3ccccc3c2Cl)cc1)CCC(=O)O` [Example 5, 3-({3-[4-(3-Chloro-indazol-2-yl)-phenoxy]-propyl}-methyl-amino)-propionic acid hydrochloride salt], the IC50 (human LTA4 hydrolase; [7]) is reported as < 5 µM and the IC50 (human LTA4 hydrolase; [6]) is reported as < 5 µM.
With `CN(CCCOc1ccc(-n2nc3ccccc3c2Cl)cc1)CCCC(=O)O` [Example 6, 4-({3-[4-(3-Chloro-indazol-2-yl)-phenoxy]-propyl}-methyl-amino)butyric acid Hydrochloride] the IC50 (human LTA4 hydrolase; [7]) was < 5 µM and the IC50 (human LTA4 hydrolase; [6]) was < 5 µM.
For `O=C(O)C1CCN(CCCOc2ccc(-n3nc4ccccc4c3Cl)cc2)CC1` [Example 8, 1-{3-[4-(3-Chloro-indazol-2-yl)-phenoxy]-propyl}-piperidine-4-carboxylic acid hydrochloride], the IC50 (human LTA4 hydrolase; [5]) was < 5 µM and the IC50 (human LTA4 hydrolase; [6]) was < 5 µM.
In the case of `CNC(=O)C1CCN(CCCOc2ccc(-n3nc4ccccc4c3Cl)cc2)CC1` [Example 9, 1-{3-[4-(3-Chloro-indazol-2-yl)-phenoxy]-propyl}-piperidine-4-carboxylic acid methylamide], the IC50 (human LTA4 hydrolase; [5]) is reported as < 5 µM and the IC50 (human LTA4 hydrolase; [6]) is reported as < 5 µM.
With `NC(=O)C1CCN(CCCOc2ccc(-n3nc4ccccc4c3Cl)cc2)CC1` [Example 10, 1-{3-[4-(3-Chloro-indazol-2-yl)-phenoxy]-propyl}-piperidine-4-carboxylic acid amide] the IC50 (human LTA4 hydrolase; [5]) was < 5 µM and the IC50 (human LTA4 hydrolase; [6]) was < 5 µM.
For `OCC1CCN(CCCOc2ccc(-n3nc4ccccc4c3Cl)cc2)CC1` [Example 11, (1-{3-[4-(3-Chloro-indazol-2-yl)-phenoxy]-propyl}-piperidin-4-yl)-methanol], the IC50 (human LTA4 hydrolase; [5]) was < 5 µM and the IC50 (human LTA4 hydrolase; [6]) was < 5 µM.
With `Clc1c2ccccc2nn1-c1ccc(OC[C@H]2CCCN2)cc1` [Example 12, 3-Chloro-2-[4-((R)-1-pyrrolidin-2-ylmethoxy)-phenyl]-2H-indazole] the IC50 (human LTA4 hydrolase; [8]) was < 5 µM and the IC50 (human LTA4 hydrolase; [6]) was < 5 µM.
In the case of `Clc1c2ccccc2nn1-c1ccc(OC[C@@H]2CCCN2)cc1` [Example 13, 3-Chloro-2-[4-((S)-1-pyrrolidin-2-ylmethoxy)-phenyl]-2H-indazole hydrochloride], the IC50 (human LTA4 hydrolase; [8]) is reported as < 5 µM and the IC50 (human LTA4 hydrolase; [6]) is reported as < 5 µM.
With `O=C(O)CN1CCC[C@@H]1COc1ccc(-n2nc3ccccc3c2Cl)cc1` [Example 15, {(R)-2-[4-(3-Chloro-indazol-2-yl)-phenoxymethyl]-pyrrolidin-1-yl}-acetic acid Hydrochloride] the IC50 (human LTA4 hydrolase; [8]) was < 5 µM and the IC50 (human LTA4 hydrolase; [6]) was < 5 µM.
In the case of `O=C(O)CCN1CCC[C@@H]1COc1ccc(-n2nc3ccccc3c2Cl)cc1` [Example 16, 3-{(R)-2-[4-(3-Chloro-indazol-2-yl)-phenoxymethyl]-pyrrolidin-1-yl}-propionic acid Hydrochloride], the IC50 (human LTA4 hydrolase; [8]) is reported as < 5 µM and the IC50 (human LTA4 hydrolase; [6]) is reported as < 5 µM.
With `O=C(O)CCCN1CCC[C@@H]1COc1ccc(-n2nc3ccccc3c2Cl)cc1` [Example 17, 4-{(R)-2-[4-(3-Chloro-indazol-2-yl)-phenoxymethyl]-pyrrolidin-1-yl}-butyric acid Hydrochloride] the IC50 (human LTA4 hydrolase; [8]) was < 5 µM and the IC50 (human LTA4 hydrolase; [6]) was < 5 µM.
For `O=C(O)CN1CCC[C@H]1COc1ccc(-n2nc3ccccc3c2Cl)cc1` [Example 18, {(S)-2-[4-(3-Chloro-indazol-2-yl)-phenoxymethyl]-pyrrolidin-1-yl}-acetic acid Hydrochloride], the IC50 (human LTA4 hydrolase; [8]) was < 5 µM and the IC50 (human LTA4 hydrolase; [6]) was < 5 µM.
In the case of `O=C(O)CCCN1CCC[C@H]1COc1ccc(-n2nc3ccccc3c2Cl)cc1` [Example 19, 4-{(S)-2-[4-(3-Chloro-indazol-2-yl)-phenoxymethyl]-pyrrolidin-1-yl}-butyric acid Hydrochloride], the IC50 (human LTA4 hydrolase; [8]) is reported as < 5 µM and the IC50 (human LTA4 hydrolase; [6]) is reported as < 5 µM.
In the case of `CN(CCCOc1ccc(Cc2ccccc2)cc1)CCC(=O)O.Cl` [SC57461], the “inhibition of ionophore-induced LTB4 production in rat peritoneum in vivo” value [1] is given as “inhibition of ionophore-induced LTB4 production”, the “inhibition of ionophore-induced LTB4 production in mouse blood ex vivo” value [2] is given as “inhibition of ionophore-induced LTB4 production” and the colitis symptoms [3] is given as “significantly improved colitis symptoms”.

— patent publication US7674802B2, “N-linked aryl heteroaryl inhibitors of LTA4H for treating inflammation” (deCODE genetics, ehf, priority 2005, dated 2010)
